The text below walks through data of patent US12171748B2, “Nitroimidazole formulations” (priority 2018, dated 2024).

Structures are written as SMILES. Where a name gives a salt, the structure may show the parent alone.

For series [1] the following is noted: cited from earlier work; for solubility in hot/boiling ethanol: hot or boiling ethanol; for solubility in hot/boiling water: hot or boiling water.
Series [2] concerns 6 strains of C. difficile. In words: Checkerboard assay for antibiotic combinations. The series is classed as cell-based, Clostridium difficile. Details: unit not given here. The procedure:
The three combinations below were tested vs. 6 strains of C. difficile following the experimental protocols and synergy calculations set out in Magi et al. 2015. • Berberine+Metronidazole • Berberine+Vancomycin • Metronidazole+Vancomycin
In accordance with Magi et al. 2015, synergy is calculated using the equation below: ΣFIC=FICA+FICB=MICA (combine)/MICA (alone)+MICB (combine)/MICB (alone)
When ΣFIC≤0.5, synergy is observed.

Series [3] has as its system ribotype 027 C. difficile strain (M7404). In words: In vivo mouse trial. Also noted: species or system C57BL6/J mice. The procedure:
Groups of five, six week old, male, C57BL6/J mice were pre-treated with an antibiotic cocktail in the drinking water containing kanamycin (0.4 mg/ml), gentamicin (0.035 mg/ml), colistin (850 U/ml), metronidazole (0.215 mg/ml), vancomycin (0.045 mg/ml) and cefaclor (0.3 mg/ml) for 7 days, followed by three days of cefaclor alone. These antibiotics disrupt the resident microbiota and induce susceptibility to infection with Clostridium difficile. On the day of infection, antibiotic pre-treatment was ceased and mice were switched to plain drinking water prior to infection with a ribotype 027 C. difficile strain (M7404) at a dose of 10^5 spores/mouse by oral gavage. Eight hours post-infection, mice were orally administered 100 ul of the respective treatments, followed by the immediate addition of the treatment to the drinking water. The treatments were replenished fresh daily. The mice were monitored twice daily for signs of infection and faecal samples were analysed by microbiological techniques for the presence of C. difficile spores. Mice were humanely killed when they reached ethical endpoints, which include 10% acute weight loss (in the first 24 hours) or 15% chronic weight loss.

The conditions of series [4]: cited from earlier work.
Series [5] concerns six strains of C. difficile. In words: MIC/MBC of compounds against six strains of C. difficile. The class given is cell-based, Clostridium difficile. The settings on record: vs. the six strains. The procedure: Eleven natural compounds, metronidazole and a positive control, vancomycin, were tested against six strains of C. difficile as shown in Table 4. […] The eleven natural compounds, or combinations, tested were: • 1. […] Matrine • 6. […] Andrographolide • 8. […] The natural compounds, metronidazole and vancomycin were obtained from commercial sources, e.g. Sigma-Aldrich.

Where [6] appears, read: single agent 50 mg/kg, oral and drinking water, infected mice.

As to `C=C1CC[C@@H]2[C@](C)(CO)[C@H](O)CC[C@@]2(C)[C@@H]1C/C=C1/C(=O)OC[C@H]1O` [Andrographolide], in series [1] (ethanol at ambient temperature), the “solubility in ethanol at ambient temperature” value was “poorly soluble”. Also, in series [1], the “solubility in hot/boiling ethanol” value is given as “soluble” and the solubility in water result is “almost insoluble”.

With `COc1ccc2cc3[n+](cc2c1OC)CCc1cc2c(cc1-3)OCO2` [Berb], the “MICBerb (alone)” value in series [2] (Replicate 1) worked out at 1024. Moreover, the “MICBerb (combine)” value in series [2] (Replicate 1, pair 128, 0.5) is 128. For the same compound, the “MICBerb (alone)” value in series [2] (Replicate 2) came to 512. For the same compound, the “MICBerb (combine)” value in series [2] (Replicate 2, pair 128, 0.5) amounted to 128. Further, in series [3] (either 25 mg/kg or 50 mg/kg), the “survival time of mice” value is reported as “did not increase the survival time”. Moreover, in series [3] (single agent 25 mg/kg), the “survival D0” value turned out to be 100%, the “survival D1” value came to 0%, the “survival D1½” value is recorded as 0% and the “survival D1¾” value came out at 0%. Moreover, in series [3] (single agent 25 mg/kg), the “survival D2” value was 0%, the “survival D3” value was determined as 0% and the “survival D4” value came out at 0%. Besides, in series [3] (single agent 50 mg/kg), the “survival D1” value is listed as 20%, the “survival D1½” value is given as 0%, the “survival D1¾” value worked out at 0% and the “survival D2” value was determined as 0%. Moreover, in series [3] (single agent 50 mg/kg), the “survival D3” value is recorded as 0% and the “survival D4” value turned out to be 0%. Besides, the “survival D0” value in series [3] (setting [6]) is reported as 100%.

Consider `O=C(O)[C@H]1O[C@@H](Oc2cc3oc(-c4ccccc4)cc(=O)c3c(O)c2O)[C@H](O)[C@@H](O)[C@@H]1O` [Baicalin], for which the “stability in alkaline environment” value in series [4] was “unstable”. Further, in series [1] (N,N-dimethylformamide), the “solubility in N,N-dimethylformamide” value was “diffluent”. Besides, the “solubility in alkaline solution” value in series [1] (alkaline solution, such as sodium bicarbonate, sodium carbonate, sodium hydroxide) is listed as “soluble”. In series [1], the solubility in water entry is “almost insoluble”.

As to `Cc1ncc([N+](=O)[O-])n1CCO` [Metronidazole, 2-methyl-5-nitroimidazole-1-ethanol], the “MICMet (alone)” value worked out at 1 in series [2] (Replicate 1) and 2 in series [2] (Replicate 2). In addition, the “MICMet (combine)” value was determined as 0.5 in series [2] (Replicate 1, pair 128, 0.5); 0.25 in series [2] (Replicate 1, pair 256, 0.25); 0.5 in series [2] (Replicate 1, pair 256, 0.5); 0.5 in series [2] (Replicate 2, pair 128, 0.5); 0.25 in series [2] (Replicate 2, pair 256, 0.25); 0.5 in series [2] (Replicate 2, pair 256, 0.5). Also, the “mice survived to the end of the experiment (day 4)” value in series [3] (Metronidazole (50 mg/kg) group) is on record as 1/5. The “survival compared to untreated mice” value in series [3] (either 25 mg/kg or 50 mg/kg) is “no statistical difference in survival”. The “survival D0” value in series [3] (single agent 25 mg/kg) and in series [3] (setting [6]) was 100% each time. For the same compound, the “survival D1” value in series [3] (single agent 25 mg/kg) came to 60%; in series [3] (single agent 50 mg/kg) it was 100%. For the same compound, the “survival D1½” value is 20% in series [3] (single agent 25 mg/kg) and 100% in series [3] (single agent 50 mg/kg). In addition, the “survival D1¾” value in series [3] (single agent 25 mg/kg) was determined as 20%; in series [3] (single agent 50 mg/kg), 100%. Besides, the “survival D2” value in series [3] (single agent 25 mg/kg) is on record as 0%; in series [3] (single agent 50 mg/kg), 20%. For the same compound, the “survival D3” value in series [3] (single agent 25 mg/kg) came to 0%; in series [3] (single agent 50 mg/kg), 20%. In addition, the “survival D4” value was found to be 0% in series [3] (single agent 25 mg/kg) and 20% in series [3] (single agent 50 mg/kg).

Regarding `COC(=O)C1=CCCN(C)C1` [arecoline hydrobromide], in series [1], the solubility in ethanol result is reported as “diffluent” and the solubility in water result is “diffluent”.

Regarding `O=C1C=CC2(CCC23C=CC(=O)O3)O1` (stereo not shown) [Anemonin], in series [1] (cold water), the “solubility in cold water” value is recorded as “slightly soluble”. In addition, in series [1], the “solubility in hot/boiling ethanol” value is listed as “soluble” and the “solubility in hot/boiling water” value was “soluble”.

Consider `COc1cc2c(cc1OC)-c1cc3ccc(OC)c(OC)c3c[n+]1CC2` [Palmatine chloride], for which, in series [1], the solubility in ethanol entry is reported as “slightly soluble”, the “solubility in hot/boiling water” value is listed as “soluble” and the solubility in water entry is listed as “sparingly soluble”.

`CN[C@H](CC(C)C)C(=O)N[C@H]1C(=O)N[C@@H](CC(N)=O)C(=O)N[C@H]2C(=O)N[C@H]3C(=O)N[C@H](C(=O)N[C@H](C(=O)O)c4cc(O)cc(O)c4-c4cc3ccc4O)[C@H](O)c3ccc(c(Cl)c3)Oc3cc2cc(c3O[C@@H]2O[C@H](CO)[C@@H](O)[C@H](O)[C@H]2O[C@H]2C[C@](C)(N)[C@H](O)[C@H](C)O2)Oc2ccc(cc2Cl)[C@H]1O` [Vancomycin]: the MBC range in series [5] was at least 1 µg/mL.

For the compound `COC(=O)C1=CCCN(C)C1` [Arecoline], in series [1], the solubility in ethanol entry was “produces a solution” and the solubility in water entry is reported as “produces a solution”.
